Measured values taken from ChEMBL document CHEMBL1201862, “PubChem BioAssay data set” (2004).
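A five-concentration, 48-hour dose response in 96-well plates underlies each endpoint, interpolated linearly between surrounding concentrations. Abbreviation: GI50, concentration required for 50% inhibition of growth.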 Activity calls are given as the source filed them. No stated cut-off is given here; in the data, active = GI50 up to about 1.1 µM and inactive = higher.

Key:
Assay in all cases: DTP human tumour cell line panel, 48 h
[1] = tested on: 786-0
[2] = tested on: A498
[3] = tested on: A549
[4] = tested on: ACHN
[5] = tested on: CAKI-1
[6] = tested on: COLO 205
[7] = tested on: DLD-1
[8] = tested on: DMS-114
[9] = tested on: DMS-273
[10] = tested on: EKVX
[11] = tested on: HCT-116
[12] = tested on: HCT-15
[13] = tested on: HL-60
[14] = tested on: HOP-18
[15] = tested on: HOP-62
[16] = tested on: HOP-92
[17] = tested on: HT-29
[18] = tested on: IGROV-1
[19] = tested on: K562
[20] = tested on: KM-20L2
[21] = tested on: KM12
[22] = tested on: LXFL 529
[23] = tested on: M14
[24] = tested on: MOLT-4
[25] = tested on: Malme-3M
[26] = tested on: NCI-H226
[27] = tested on: NCI-H23
[28] = tested on: NCI-H460
[29] = tested on: NCI-H522
[30] = tested on: OVCAR-3
[31] = tested on: OVCAR-4
[32] = tested on: OVCAR-5
[33] = tested on: OVCAR-8
[34] = tested on: RPMI-8226
[35] = tested on: SF-268
[36] = tested on: SF-295
[37] = tested on: SF-539
[38] = tested on: SK-MEL-28
[39] = tested on: SK-MEL-2
[40] = tested on: SK-MEL-5
[41] = tested on: SK-OV-3
[42] = tested on: SN12C
[43] = tested on: SNB-19
[44] = tested on: SNB-75
[45] = tested on: SNB-78
[46] = tested on: SR
[47] = tested on: SW-620
[48] = tested on: U-251
[49] = tested on: UACC-257
[50] = tested on: UO-31
[51] = tested on: CCRF-CEM
[52] = tested on: HCC 2998
[53] = tested on: LOX IMVI
[54] = tested on: RXF 393
[55] = tested on: TK-10
[56] = tested on: UACC-62

Measured: GI50

CCOc1ccc2c(c1)[n+]([O-])c(-c1ccc(Cl)cc1)c(N)[n+]2[O-]
> 100 µM: [12]
inactive: [1] > 100 µM | [2] > 100 µM | [3] > 100 µM | [4] > 100 µM | [5] > 100 µM | [6] > 100 µM | [7] > 100 µM | [8] 68.7 µM | [9] > 100 µM | [10] 95.7 µM | [11] > 100 µM | [13] 44 µM | [14] > 100 µM | [15] > 100 µM | [16] > 100 µM | [17] > 100 µM | [18] > 100 µM | [19] > 100 µM | [20] > 100 µM | [21] > 100 µM | [22] 87.7 µM | [23] > 100 µM | [24] 44.3 µM | [25] > 100 µM | [26] > 100 µM | [27] > 100 µM | [28] > 100 µM | [29] 34.4 µM | [30] > 100 µM | [31] > 100 µM | [32] > 100 µM | [33] > 100 µM | [34] 10.8 µM | [35] > 100 µM | [36] > 100 µM | [37] > 100 µM | [38] > 100 µM | [39] > 100 µM | [40] > 100 µM | [41] > 100 µM | [42] > 100 µM | [43] > 100 µM | [44] 85.1 µM | [45] > 100 µM | [46] > 100 µM | [47] > 100 µM | [48] > 100 µM | [49] > 100 µM | [50] 67.1 µM

CCOC(=O)CC[C@H](NC(=O)c1nc[nH]c1[N+](=O)[O-])C(=O)OCC
inactive: [1] > 100 µM | [2] > 100 µM | [3] > 100 µM | [4] > 100 µM | [51] > 100 µM | [6] > 100 µM | [7] > 100 µM | [8] > 100 µM | [9] > 100 µM | [10] > 100 µM | [52] > 100 µM | [11] > 100 µM | [13] > 100 µM | [14] > 100 µM | [15] > 100 µM | [16] > 100 µM | [18] > 100 µM | [19] > 100 µM | [20] > 100 µM | [21] > 100 µM | [53] > 100 µM | [22] > 100 µM | [23] > 100 µM | [24] > 100 µM | [25] > 100 µM | [26] > 100 µM | [27] > 100 µM | [28] > 100 µM | [29] > 100 µM | [30] > 100 µM | [31] > 100 µM | [33] > 100 µM | [34] > 100 µM | [54] > 100 µM | [35] > 100 µM | [36] > 100 µM | [37] > 100 µM | [38] > 100 µM | [39] > 100 µM | [41] > 100 µM | [42] > 100 µM | [43] > 100 µM | [45] > 100 µM | [46] 35.7 µM | [55] > 100 µM | [48] > 100 µM | [49] > 100 µM | [56] > 100 µM | [50] > 100 µM
> 100 µM: [12]
